Paper PMC11858653, “Design, Synthesis and Bioactive Evaluation of Topo I/c-MYC Dual Inhibitors to Inhibit Oral Cancer via Regulating the PI3K/AKT/NF-κB Signaling Pathway” (Molecules, 2025)

Key:
[1] = target: T1, Topo I (Homo sapiens, UniProt P11387); test: Cellular thermal shift assay (CETSA); format: cell-based; set-up: endogenous in cells; host or cells: Cal27; details: 8 μM
T1 sequence (P11387 1-765): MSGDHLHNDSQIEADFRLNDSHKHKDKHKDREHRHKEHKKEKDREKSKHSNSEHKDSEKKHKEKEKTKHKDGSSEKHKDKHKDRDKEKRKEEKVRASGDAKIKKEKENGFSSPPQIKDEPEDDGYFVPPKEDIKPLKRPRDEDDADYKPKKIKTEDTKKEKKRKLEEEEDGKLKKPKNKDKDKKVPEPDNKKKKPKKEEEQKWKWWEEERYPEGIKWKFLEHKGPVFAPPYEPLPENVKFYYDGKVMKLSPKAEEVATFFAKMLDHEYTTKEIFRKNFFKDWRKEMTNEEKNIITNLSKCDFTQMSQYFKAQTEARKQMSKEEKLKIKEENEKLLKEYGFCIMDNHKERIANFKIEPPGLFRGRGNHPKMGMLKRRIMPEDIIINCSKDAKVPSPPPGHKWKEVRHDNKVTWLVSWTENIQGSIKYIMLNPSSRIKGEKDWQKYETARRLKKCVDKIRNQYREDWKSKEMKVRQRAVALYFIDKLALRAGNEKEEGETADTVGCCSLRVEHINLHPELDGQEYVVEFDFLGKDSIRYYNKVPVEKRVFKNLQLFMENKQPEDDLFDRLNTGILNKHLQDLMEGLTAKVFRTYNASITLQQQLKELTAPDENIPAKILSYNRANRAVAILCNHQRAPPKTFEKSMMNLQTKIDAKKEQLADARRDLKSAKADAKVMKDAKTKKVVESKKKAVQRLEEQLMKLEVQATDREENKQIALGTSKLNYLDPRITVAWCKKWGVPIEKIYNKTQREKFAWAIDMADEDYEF
Experimental: For intact cell assays, Cal27 cells were treated with compound 7be (8 μM) for 3 h before collection and washing several times with PBS buffer to avoid excess compound residues. Each cell suspension was dispensed into different 0.2 mL PCR tubes and then denatured for 3 min at different temperatures on a PCR instrument, and the cells were freeze-thawed twice with liquid nitrogen. After centrifugation, the supernatant was collected, mixed with an appropriate amount of up-sampling buffer and boiled at 95 °C for 6 min. The supernatant was detected by Western blot. For cell lysate experiments, Cal27 cells were collected with RIPA lysis buffer. Then compound 7be (8 μM) was added to the supernatant and incubated at 25 °C for 2 h. After denaturation at different temperatures for 3 min, centrifugation was performed before collecting the supernatant, mixing with an appropriate amount of lysing buffer and boiling at 95 °C for 6 min, and then Western blot was performed to detect the supernatant.

[2] = test system: Cal27 cells; test: Annexin V-FITC/PI apoptosis assay; format: cell-based, human; details: Cal27, 24 h, increased from 5.88%; treated with 1, 2, 3 and 4 μM
Experimental: Cal27 cells were treated with compound 7be for 24 h. Tumor cells were then digested and collected. The resulting cells were incubated with Annexin V/PI light-avoidance staining for 0.5 h. Finally, different stages of apoptosis populations of Cal27 cells were immediately analyzed by flow cytometry.

[3] = target: T1, Topo I; test: Topo I inhibitory activity, agarose gel electrophoresis (pBR322); format: biochemical
[4] = test system: Cal27 cells; test: MTT cell survival with autophagy inhibitor CQ; format: cell-based, human; details: Cal27, 20 μM CQ and different concentrations of 7be
Experimental: Meanwhile, to further confirm that compound 7be could induce autophagic death in Cal27 cells, we used a classical autophagy inhibitor, chloroquine (CQ), to evaluate the role of autophagy in compound 7be-mix-induced cell death.
Human oral cancer Cal27 cells were seeded in 96-well plates and incubated overnight in 180 μL of medium containing 10% Fetal Bovine Serum (Gibco, San Francisco, CA, USA). On the following day, compounds at final concentrations of 2.5, 5, 10 and 20 μM were added to each well and incubated for 48 h. Then, 10 μL of 5 mg/mL MTT solution was added to each well and incubated at 37 °C for 4 h. After 4 h of incubation at 37 °C, the MTT-containing medium was removed and DMSO was added to each well and the absorbance at 570 nm and 630 nm was measured using a microplate reader (CYTATION 3, Burton, Westwood, NJ, USA). Survival/% = (mean OD of experimental group/mean OD of control group) × 100%. Each test was repeated at least three times.

[5] = test system: MGC-803; test: MTT antiproliferative assay, MGC-803; format: cell-based, human; details: Homo sapiens, MGC-803, 48 h, mean ± SD

thermal stability of Topo I protein, cell lysate ([1]; Cal27 lysate, 2 h, especially 52 to 56 °C): increased
thermal stability of Topo I protein, intact cells ([1]; intact Cal27 cells, 3 h): increase in thermal stability
Topo I inhibitory activity (in words) ([3]; 20 μM): potent Topo I activity
concentration at which the activity of Topo I was fully inhibited ([3]; different concentrations): 20 µM
IC50 [5]: 1.69 ± 0.24 µM
SMILES: Cc1cc(C)c2c(n1)S(=O)(=O)c1c-2nc(NCCN2CCCCC2)c2ccccc12 [7be, 7,9-Dimethyl-5-((2-(piperidin-1-yl)ethyl)amino) pyrido[3′,2′:4,5]thieno[3,2-c]isoquinoline 11,11-dioxide]
number of apoptotic cells (early and late apoptotic cells) [2]: 32.8%
cell survival rate of combined treatment with 20 μM CQ [4]: higher than that of the group treated with compound 7be alone
